From ChEMBL document CHEMBL2062364, “Discovery and optimization of new benzimidazole- and benzoxazole-pyrimidone selective PI3Kβ inhibitors for the treatment of phosphatase and TENsin homologue (PTEN)-deficient cancers” (J Med Chem, 2012)
In brackets after ≈: the same amount, converted by molar mass.

Columns and labels:
Mus musculus [1] = assay: Inhibition of Akt phosphorylation at T308 residue in plasma of po dosed SCID mouse bearing human PTEN-deficient PC3 cells administered BID; type: functional, organism-based; conditions: PC-3, Plasma
[2] = AUC (0 to Tlast) in CB17/ICR-Prkdc SCID mouse at 6 mg/kg, iv; type: ADME, organism-based; parameters: dose 6 mg/kg, route intravenous; conditions: plasma
[3] = Drug uptake in tumor of SCID mouse xenografted with PTEN-deficient human PC3 cells at 300 mg/kg, po BID measured after 1 hr; type: ADME, organism-based, Neoplasm, PC-3; parameters: dose 300 mg/kg, route oral; conditions: read-out: Drug uptake
[4] = biological target: T1, Phosphatidylinositol 4,5-bisphosphate 3-kinase catalytic subunit beta isoform (Homo sapiens, UniProt P42338); assay: Inhibition of human PI3Kbeta-mediated Akt phosphorylation at T308 residue expressed in PTEN-deficient human PC3 cells after 2 hrs by Western blot analysis; type: cell-based, PC-3
T1 sequence (P42338 whole entry, canonical isoform): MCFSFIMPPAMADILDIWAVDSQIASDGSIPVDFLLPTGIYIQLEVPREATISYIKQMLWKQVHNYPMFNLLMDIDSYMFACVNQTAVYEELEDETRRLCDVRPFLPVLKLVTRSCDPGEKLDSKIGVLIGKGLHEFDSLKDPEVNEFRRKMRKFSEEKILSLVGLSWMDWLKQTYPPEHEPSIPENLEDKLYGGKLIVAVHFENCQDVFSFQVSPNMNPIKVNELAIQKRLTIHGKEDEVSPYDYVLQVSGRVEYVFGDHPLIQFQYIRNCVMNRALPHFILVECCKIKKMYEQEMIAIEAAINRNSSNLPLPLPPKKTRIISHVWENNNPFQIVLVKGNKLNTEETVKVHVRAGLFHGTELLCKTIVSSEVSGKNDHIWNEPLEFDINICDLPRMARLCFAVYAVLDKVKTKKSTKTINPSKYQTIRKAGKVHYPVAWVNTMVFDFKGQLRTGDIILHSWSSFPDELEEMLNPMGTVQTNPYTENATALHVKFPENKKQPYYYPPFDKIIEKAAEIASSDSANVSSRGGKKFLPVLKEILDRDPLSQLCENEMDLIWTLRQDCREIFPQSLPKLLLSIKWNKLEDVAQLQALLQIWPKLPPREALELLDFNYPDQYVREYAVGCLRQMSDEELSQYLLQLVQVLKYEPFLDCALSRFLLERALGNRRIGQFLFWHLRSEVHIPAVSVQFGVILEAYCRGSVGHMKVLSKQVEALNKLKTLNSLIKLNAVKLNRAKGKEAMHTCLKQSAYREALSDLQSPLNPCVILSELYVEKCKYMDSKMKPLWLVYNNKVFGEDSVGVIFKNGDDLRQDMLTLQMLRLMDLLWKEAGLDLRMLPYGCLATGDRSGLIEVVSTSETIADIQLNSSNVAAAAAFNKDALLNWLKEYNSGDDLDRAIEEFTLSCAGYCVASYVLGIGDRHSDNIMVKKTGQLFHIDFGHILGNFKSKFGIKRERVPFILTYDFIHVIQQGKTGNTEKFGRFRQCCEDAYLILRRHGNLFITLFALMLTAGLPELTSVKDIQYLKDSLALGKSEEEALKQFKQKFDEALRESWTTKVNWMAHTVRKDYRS

[5] = Plasma concentration in SCID mouse xenografted with PTEN-deficient human PC3 cells at 300 mg/kg, po BID measured after 3 hrs; type: ADME, organism-based, PC-3; parameters: dose 300 mg/kg, route oral
[6] = AUC (0 to infinity) in CB17/ICR-Prkdc SCID mouse at 6 mg/kg, iv; type: ADME, organism-based; parameters: time infinity, dose 6 mg/kg, route intravenous; conditions: plasma
[7] = Terminal half life in CB17/ICR-Prkdc SCID mouse at 10 mg/kg, po; type: ADME, organism-based; parameters: dose 10 mg/kg, route oral; conditions: in vivo, read-out: beta t1/2 (converted)
Mus musculus [8] = assay: Inhibition of Akt phosphorylation at T308 residue in tumor of po dosed SCID mouse bearing human PTEN-deficient PC3 cells administered BID; type: functional, organism-based; conditions: PC-3
Cytochrome P450 3A4 = Cytochrome P450 3A4 (Homo sapiens, UniProt P08684); assay: Inhibition of human recombinant CPY3A4
Chain of Cytochrome P450 3A4 (P08684 whole entry): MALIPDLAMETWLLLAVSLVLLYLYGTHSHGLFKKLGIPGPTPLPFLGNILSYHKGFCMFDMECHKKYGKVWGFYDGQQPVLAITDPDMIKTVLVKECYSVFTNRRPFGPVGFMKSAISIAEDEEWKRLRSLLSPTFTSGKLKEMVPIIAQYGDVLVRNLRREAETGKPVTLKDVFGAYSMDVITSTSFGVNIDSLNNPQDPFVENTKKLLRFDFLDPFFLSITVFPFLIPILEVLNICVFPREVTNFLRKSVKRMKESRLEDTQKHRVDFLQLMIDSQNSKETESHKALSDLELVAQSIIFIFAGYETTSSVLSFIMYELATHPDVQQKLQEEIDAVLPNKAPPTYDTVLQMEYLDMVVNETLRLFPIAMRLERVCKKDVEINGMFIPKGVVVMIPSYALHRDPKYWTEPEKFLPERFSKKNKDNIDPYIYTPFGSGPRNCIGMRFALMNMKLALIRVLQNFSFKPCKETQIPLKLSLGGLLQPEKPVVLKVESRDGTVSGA

[9] = Drug uptake in tumor of SCID mouse xenografted with PTEN-deficient human PC3 cells at 300 mg/kg, po BID measured after 6 hrs; type: ADME, organism-based, Neoplasm, PC-3; parameters: dose 300 mg/kg, route oral; conditions: read-out: Drug uptake
[10] = biological target: T1, Phosphatidylinositol 4,5-bisphosphate 3-kinase catalytic subunit beta isoform; assay: Inhibition of human PI3Kbeta-mediated Akt phosphorylation at Ser473 residue expressed in mouse MEF-3T3 cells after 0.5 to 2 hrs by Western blot analysis; type: cell-based
[11] = AUC (0 to Tlast) in CB17/ICR-Prkdc SCID mouse at 10 mg/kg, po; type: ADME, organism-based; parameters: dose 10 mg/kg, route oral; conditions: plasma
[12] = Terminal half life in CB17/ICR-Prkdc SCID mouse at 6 mg/kg, iv; type: ADME, organism-based; parameters: dose 6 mg/kg, route intravenous; conditions: in vivo, read-out: beta t1/2 (converted)
[13] = biological target: T1, Phosphatidylinositol 4,5-bisphosphate 3-kinase catalytic subunit beta isoform; assay: Inhibition of human PI3Kbeta-mediated Akt phosphorylation at Ser473 residue expressed in PTEN-deficient human PC3 cells by chemiluminescence assay; type: cell-based, PC-3
Mus musculus [14] = assay: Tlast in CB17/ICR-Prkdc SCID mouse at 6 mg/kg, iv; type: ADME, organism-based; parameters: dose 6 mg/kg, route intravenous; conditions: in vivo
[15] = C0 in CB17/ICR-Prkdc SCID mouse at 6 mg/kg, iv; type: ADME, organism-based; parameters: dose 6 mg/kg, route intravenous; conditions: in vivo
Nucleic Acid = assay: Ratio of drug uptake in plasma to tumor of SCID mouse xenografted with PTEN-deficient human PC3 cells at 300 mg/kg, po BID measured after 0.5 to 24 hrs; type: ADME, organism-based, PC-3; parameters: dose 300 mg/kg, route oral; conditions: in vivo
[16] = biological target: Serine/threonine-protein kinase mTOR (Homo sapiens, UniProt P42345); assay: Inhibition of mTOR
[17] = Inhibition of mTORC2-mediated Akt phosphorylation at Ser473 residue in PTEN-deficient human PC3 cells after 2 hrs by Western blot analysis; type: cell-based; conditions: PC-3, 2 h
[18] = Drug metabolism in human liver microsomes; type: ADME, Microsome; conditions: read-out: Drug metabolism
[19] = Oral bioavailability in CB17/ICR-Prkdc SCID mouse at 10 mg/kg; type: ADME, organism-based; conditions: in vivo
[20] = biological target: T2, Phosphatidylinositol 4,5-bisphosphate 3-kinase catalytic subunit alpha isoform (Homo sapiens, UniProt P42336); assay: Inhibition of N-terminus poly-His tagged human PI3Kalpha expressed in baculovirus infected insect sf9 cells coexpressing p85alpha using PI(4,5)P2 as substrate preincubated with compound for 15 mins measured after 10 mins by HTRF assay
T2 sequence (P42336 whole entry, canonical isoform): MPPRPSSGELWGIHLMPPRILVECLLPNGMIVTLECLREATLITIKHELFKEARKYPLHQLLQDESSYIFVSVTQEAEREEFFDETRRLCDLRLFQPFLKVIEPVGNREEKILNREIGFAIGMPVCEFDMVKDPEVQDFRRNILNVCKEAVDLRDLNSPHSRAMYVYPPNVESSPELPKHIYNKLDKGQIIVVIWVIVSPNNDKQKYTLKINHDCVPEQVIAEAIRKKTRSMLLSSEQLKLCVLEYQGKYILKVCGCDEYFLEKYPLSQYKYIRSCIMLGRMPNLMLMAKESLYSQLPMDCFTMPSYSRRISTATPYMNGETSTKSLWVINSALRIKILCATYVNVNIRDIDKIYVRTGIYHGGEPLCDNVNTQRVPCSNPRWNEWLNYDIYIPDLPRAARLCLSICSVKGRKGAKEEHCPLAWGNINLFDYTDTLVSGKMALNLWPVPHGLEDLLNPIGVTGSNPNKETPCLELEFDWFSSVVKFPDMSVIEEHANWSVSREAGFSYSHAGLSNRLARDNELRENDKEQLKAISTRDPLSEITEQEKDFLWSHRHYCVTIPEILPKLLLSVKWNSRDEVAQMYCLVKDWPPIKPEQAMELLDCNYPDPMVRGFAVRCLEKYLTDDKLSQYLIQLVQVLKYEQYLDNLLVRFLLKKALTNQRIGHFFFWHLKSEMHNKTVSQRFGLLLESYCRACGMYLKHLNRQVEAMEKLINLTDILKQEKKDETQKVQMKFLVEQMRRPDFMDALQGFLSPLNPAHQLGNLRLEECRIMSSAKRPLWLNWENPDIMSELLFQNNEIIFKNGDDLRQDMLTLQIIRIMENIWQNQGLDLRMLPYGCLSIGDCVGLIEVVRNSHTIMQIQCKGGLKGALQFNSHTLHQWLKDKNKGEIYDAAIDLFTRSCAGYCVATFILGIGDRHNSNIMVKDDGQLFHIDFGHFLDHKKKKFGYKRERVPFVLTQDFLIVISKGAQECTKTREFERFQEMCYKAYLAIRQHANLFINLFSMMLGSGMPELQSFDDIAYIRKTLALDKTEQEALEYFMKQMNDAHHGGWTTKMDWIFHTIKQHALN

[21] = biological target: T2, Phosphatidylinositol 4,5-bisphosphate 3-kinase catalytic subunit alpha isoform; assay: Inhibition of human PI3Kalpha-mediated Akt phosphorylation at Ser473 residue expressed in human H460 cells after 0.5 to 2 hrs by Western blot analysis; type: cell-based
[22] = Apparent permeability of the compound across human Caco2 cells; type: ADME, cell-based; conditions: Caco-2
[23] = Cmax in CB17/ICR-Prkdc SCID mouse at 10 mg/kg, po; type: ADME, organism-based; parameters: dose 10 mg/kg, route oral; conditions: in vivo
Mus musculus [24] = assay: Toxicity in SCID mouse bearing PTEN-deficient human PC3 cells at 300 mg/kg, po BID for 9 days; type: organism-based, PC-3; parameters: dose 300 mg/kg, route oral; conditions: in vivo, 216 h
PC-3 = assay: Antitumor activity against PTEN-deficient human PC3 cells xenografted in SCID mouse assessed as tumor growth inhibition at 300 mg/kg, po BID for 9 days measured on day 32 relative to control; type: functional
[25] = biological target: T1, Phosphatidylinositol 4,5-bisphosphate 3-kinase catalytic subunit beta isoform; assay: Inhibition of N-terminus poly-His tagged human PI3Kbeta expressed in baculovirus infected insect […] cells coexpressing p85alpha using PI(4,5)P2 as substrate preincubated with compound for 15 mins measured after 10 mins by HTRF assay
[26] = Thermodynamic solubility of the compound in phosphate buffer at pH 7.4 after 16 hrs by HPLC analysis; type: physicochemical; conditions: read-out: Therm_solubility
[27] = Tmax in CB17/ICR-Prkdc SCID mouse at 10 mg/kg, po; type: ADME, organism-based; parameters: dose 10 mg/kg, route oral; conditions: in vivo
[28] = biological target: Phosphatidylinositol 4,5-bisphosphate 3-kinase catalytic subunit gamma isoform (Homo sapiens, UniProt P48736); assay: Inhibition of human PI3Kgamma-mediated Akt phosphorylation at Ser473 residue expressed in mouse RAW264.7 cells after 0.5 to 2 hrs by Western blot analysis; type: cell-based
Chain of Phosphatidylinositol 4,5-bisphosphate 3-kinase catalytic subunit gamma isoform (P48736 whole entry, canonical isoform): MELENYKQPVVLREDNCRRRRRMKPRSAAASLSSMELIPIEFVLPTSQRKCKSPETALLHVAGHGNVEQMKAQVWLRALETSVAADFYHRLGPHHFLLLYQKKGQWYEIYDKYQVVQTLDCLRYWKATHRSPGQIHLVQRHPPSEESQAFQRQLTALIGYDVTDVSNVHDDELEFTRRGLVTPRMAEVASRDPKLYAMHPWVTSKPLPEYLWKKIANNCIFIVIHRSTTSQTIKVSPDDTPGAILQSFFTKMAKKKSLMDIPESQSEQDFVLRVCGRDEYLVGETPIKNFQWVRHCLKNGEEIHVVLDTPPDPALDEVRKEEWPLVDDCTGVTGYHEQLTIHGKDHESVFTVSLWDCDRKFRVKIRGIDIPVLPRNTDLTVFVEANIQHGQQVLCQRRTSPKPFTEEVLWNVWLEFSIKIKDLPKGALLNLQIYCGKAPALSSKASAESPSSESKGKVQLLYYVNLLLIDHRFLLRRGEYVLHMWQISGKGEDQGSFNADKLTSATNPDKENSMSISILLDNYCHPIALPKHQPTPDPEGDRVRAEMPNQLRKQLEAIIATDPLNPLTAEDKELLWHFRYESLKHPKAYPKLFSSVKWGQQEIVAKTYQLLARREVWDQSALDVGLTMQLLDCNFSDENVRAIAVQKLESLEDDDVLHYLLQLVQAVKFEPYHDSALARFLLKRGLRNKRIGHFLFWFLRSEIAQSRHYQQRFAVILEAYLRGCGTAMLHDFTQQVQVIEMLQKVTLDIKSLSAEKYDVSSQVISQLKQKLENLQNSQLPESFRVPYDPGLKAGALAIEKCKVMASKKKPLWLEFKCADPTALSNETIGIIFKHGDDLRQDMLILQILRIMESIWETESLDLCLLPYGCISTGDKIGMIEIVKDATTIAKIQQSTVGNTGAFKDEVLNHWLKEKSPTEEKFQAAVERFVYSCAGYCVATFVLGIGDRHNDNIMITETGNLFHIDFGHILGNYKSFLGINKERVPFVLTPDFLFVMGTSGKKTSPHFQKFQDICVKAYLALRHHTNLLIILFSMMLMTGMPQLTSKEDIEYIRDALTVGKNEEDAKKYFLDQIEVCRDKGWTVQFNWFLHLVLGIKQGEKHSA

Plasma [29] = assay: Plasma concentration in SCID mouse xenografted with PTEN-deficient human PC3 cells at 300 mg/kg, po BID measured after day 1; type: ADME, organism-based, PC-3; parameters: dose 300 mg/kg, route oral; conditions: in vivo
[30] = AUC (0 to 24 hrs) in CB17/ICR-Prkdc SCID mouse at 10 mg/kg, po; type: ADME, organism-based; parameters: time < 24 hr, dose 10 mg/kg, route oral; conditions: plasma
[31] = Drug uptake in tumor of SCID mouse xenografted with PTEN-deficient human PC3 cells at 300 mg/kg, po BID measured after 24 hrs; type: ADME, organism-based, Neoplasm, PC-3; parameters: dose 300 mg/kg, route oral; conditions: read-out: Drug uptake
[32] = Clearance in CB17/ICR-Prkdc SCID mouse at 6 mg/kg, iv; type: ADME, organism-based; parameters: dose 6 mg/kg, route intravenous; conditions: in vivo
Plasma [33] = assay: Plasma concentration in SCID mouse xenografted with PTEN-deficient human PC3 cells at 300 mg/kg, po BID measured after day 4; type: ADME, organism-based, PC-3; parameters: dose 300 mg/kg, route oral; conditions: in vivo
[34] = Plasma concentration in SCID mouse xenografted with PTEN-deficient human PC3 cells at 300 mg/kg, po BID measured after 1 hr; type: ADME, organism-based, PC-3; parameters: dose 300 mg/kg, route oral
[35] = Plasma concentration in SCID mouse xenografted with PTEN-deficient human PC3 cells at 300 mg/kg, po BID measured after 24 hrs; type: ADME, organism-based, PC-3; parameters: dose 300 mg/kg, route oral
Mus musculus [36] = assay: Tlast in CB17/ICR-Prkdc SCID mouse at 10 mg/kg, po; type: ADME, organism-based; parameters: dose 10 mg/kg, route oral; conditions: in vivo
Mus musculus [37] = assay: Toxicity in SCID mouse bearing PTEN-deficient human PC3 cells assessed as weight loss at 300 mg/kg, po BID for 9 days; type: organism-based, PC-3; parameters: dose 300 mg/kg, route oral; conditions: in vivo, 216 h
[38] = AUC (0 to 24 hrs) in CB17/ICR-Prkdc SCID mouse at 6 mg/kg, iv; type: ADME, organism-based; parameters: time < 24 hr, dose 6 mg/kg, route intravenous; conditions: plasma
[39] = AUC (0 to infinity) in CB17/ICR-Prkdc SCID mouse at 10 mg/kg, po; type: ADME, organism-based; parameters: time infinity, dose 10 mg/kg, route oral; conditions: plasma
[40] = Plasma concentration in SCID mouse xenografted with PTEN-deficient human PC3 cells at 300 mg/kg, po BID measured after 0.5 hrs; type: ADME, organism-based, PC-3; parameters: dose 300 mg/kg, route oral

Work on `Cn1c(Cc2nc(N3CCOCC3)cc(=O)[nH]2)nc2ccccc21` yielded an EC50 (Mus musculus [1]) of 1600 nM, an AUC(0-t) [2] of 1950 ng·h/mL and a concentration at 1 h [3] of 16 µM. For the same molecule, the IC50 [4] was 188 nM, the concentration at 3 h [5] was 8 µM and the AUC(0-inf) [6] was 1950 ng·h/mL. For the same molecule, the half-life [7] was 3.9 h, the EC50 (Mus musculus [8]) was 2100 nM and the IC50 (Cytochrome P450 3A4) was over 40000 nM. It also gave a concentration at 6 h [9] of 3.6 µM, an IC50 [10] of 86 nM and an AUC(0-t) [11] of 846 ng·h/mL. The half-life [12] was 4.4 h, the IC50 [13] was 76 nM and the Tlast (Mus musculus [14]) was 24 h. For the same molecule, the C0 [15] was 4870 ng/mL, the Ratio (Nucleic Acid) was 1 and the IC50 [16] was over 10000 nM. For the same molecule, the IC50 [17] was 76 nM, the metabolised [18] was 27% and the bioavailability [19] was 26%. It also gave an IC50 [20] of over 10000 nM, an IC50 [21] of over 10000 nM and a Papp [22] of 3 ×10⁻⁶ cm/s. The Cmax [23] was 641 ng/mL, the Activity (Mus musculus [24]) was “Non-toxic” and the T/C (PC-3) was 45%. The IC50 [25] was 99 nM, the solubility thermodynamic at 16 h [26] was 65 µM (≈ 21.1 µg/mL) and the Tmax [27] was 0.5 h. For the same molecule, the IC50 [28] was over 10000 nM, the Drug uptake (Plasma [29]) was “Active” and the AUC(0-t) at 24 h [30] was 846 ng·h/mL. The concentration at 24 h [31] was 0.7 µM, the clearance [32] was 51.7 mL/min/kg and the Drug uptake (Plasma [33]) was “Active”. For the same molecule, the concentration at 1 h [34] was 22 µM, the concentration at 24 h [35] was 1.7 µM and the Tlast (Mus musculus [36]) was 24 h. For the same molecule, the Activity (Mus musculus [37]) was “Non-toxic”, the AUC(0-t) at 24 h [38] was 1950 ng·h/mL and the AUC(0-inf) [39] was 850 ng·h/mL. The concentration at 0.5 h [40] was 28 µM.
